Experiments:
BT-474 Tam1 [1] = experiment: relative IC50 (midpoint of fitted logistic curve, plateau may be below 50% inhibition; CellTiter-Glo viability); higher = less potent; conditions: 4-OH-tamoxifen in medium 1 µM; 72 h
Outline: (§1)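 After seeding into 384-well plates with library drugs at five concentrations spanning a 10 000-fold range, breast cancer cell lines and their resistant derivatives were incubated 72 h at 37 °C. Resistant lines received medium with 1 μM of the selecting drug. CellTiter-Glo signal was read on a PHERAstar and scaled to vehicle-only and positive controls. Drug sensitivity score, relative IC50 (the curve midpoint) and top-dose inhibition came from logistic fits run in the Breeze pipeline.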

ZR-75-1 [2] = experiment: as above; conditions: 72 h
Outline: as §1

ZR-75-1 Tam1 [3] = experiment: as above; conditions: 4-OH-tamoxifen in medium 1 µM; 72 h
Outline: as §1

MCF-7 [4] = experiment: as above; conditions: 72 h
Outline: as §1

ZR-75-1 Tam2 [5] = experiment: as above; conditions: 4-OH-tamoxifen in medium 1 µM; 72 h
Outline: as §1

T-47D Tam2 [6] = experiment: as above; conditions: 4-OH-tamoxifen in medium 1 µM; 72 h
Outline: as §1

T-47D [7] = experiment: as above; conditions: 72 h
Outline: as §1

MCF-7 Tam1 [8] = experiment: as above; conditions: 4-OH-tamoxifen in medium 1 µM; 72 h
Outline: as §1

BT-474 [9] = experiment: as above; conditions: 72 h
Outline: as §1

T-47D Tam1 [10] = experiment: as above; conditions: 4-OH-tamoxifen in medium 1 µM; 72 h
Outline: as §1

BT-474 Tam2 [11] = experiment: as above; conditions: 4-OH-tamoxifen in medium 1 µM; 72 h
Outline: as §1

BT-474 Tam1 [12] = experiment: drug sensitivity score (DSS) (DSS (dimensionless)); higher = more sensitive; extreme values may be limits of the assay; conditions: 4-OH-tamoxifen in medium 1 µM; 72 h
Outline: as §1

ZR-75-1 [13] = experiment: as above; conditions: 72 h
Outline: as §1

ZR-75-1 Tam1 [14] = experiment: as above; conditions: 4-OH-tamoxifen in medium 1 µM; 72 h
Outline: as §1

MCF-7 [15] = experiment: as above; conditions: 72 h
Outline: as §1

ZR-75-1 Tam2 [16] = experiment: as above; conditions: 4-OH-tamoxifen in medium 1 µM; 72 h
Outline: as §1

T-47D Tam2 [17] = experiment: as above; conditions: 4-OH-tamoxifen in medium 1 µM; 72 h
Outline: as §1

T-47D [18] = experiment: as above; conditions: 72 h
Outline: as §1

MCF-7 Tam1 [19] = experiment: as above; conditions: 4-OH-tamoxifen in medium 1 µM; 72 h
Outline: as §1

BT-474 [20] = experiment: as above; conditions: 72 h
Outline: as §1

T-47D Tam1 [21] = experiment: as above; conditions: 4-OH-tamoxifen in medium 1 µM; 72 h
Outline: as §1

BT-474 Tam2 [22] = experiment: as above; conditions: 4-OH-tamoxifen in medium 1 µM; 72 h
Outline: as §1

CNNCc1ccc(C(=O)NC(C)C)cc1 [Procarbazine]
relative IC50 (BT-474 Tam1 [1]): > 10 µM
relative IC50 (ZR-75-1 [2]; 4-OH-tamoxifen in medium 0 µM): > 10 µM
relative IC50 (ZR-75-1 [2]; 4-OH-tamoxifen in medium 1 µM): > 10 µM
relative IC50 (ZR-75-1 Tam1 [3]): > 10 µM
relative IC50 (MCF-7 [4]; 4-OH-tamoxifen in medium 0 µM): > 10 µM
relative IC50 (MCF-7 [4]; 4-OH-tamoxifen in medium 1 µM): > 10 µM
relative IC50 (ZR-75-1 Tam2 [5]): > 10 µM
relative IC50 (T-47D Tam2 [6]): > 10 µM
relative IC50 (T-47D [7]; 4-OH-tamoxifen in medium 0 µM): > 10 µM
relative IC50 (T-47D [7]; 4-OH-tamoxifen in medium 1 µM): > 10 µM
relative IC50 (MCF-7 Tam1 [8]): > 10 µM
relative IC50 (BT-474 [9]; 4-OH-tamoxifen in medium 0 µM): > 10 µM
relative IC50 (BT-474 [9]; 4-OH-tamoxifen in medium 1 µM): > 10 µM
relative IC50 (T-47D Tam1 [10]): > 10 µM
relative IC50 (BT-474 Tam2 [11]): > 10 µM
drug sensitivity score (BT-474 Tam1 [12]): 0
drug sensitivity score (ZR-75-1 [13]; 4-OH-tamoxifen in medium 0 µM): 0
drug sensitivity score (ZR-75-1 [13]; 4-OH-tamoxifen in medium 1 µM): 0
drug sensitivity score (ZR-75-1 Tam1 [14]): 0
drug sensitivity score (MCF-7 [15]; 4-OH-tamoxifen in medium 0 µM): 0
drug sensitivity score (MCF-7 [15]; 4-OH-tamoxifen in medium 1 µM): 0
drug sensitivity score (ZR-75-1 Tam2 [16]): 0
drug sensitivity score (T-47D Tam2 [17]): 0
drug sensitivity score (T-47D [18]; 4-OH-tamoxifen in medium 0 µM): 0
drug sensitivity score (T-47D [18]; 4-OH-tamoxifen in medium 1 µM): 0
drug sensitivity score (MCF-7 Tam1 [19]): 0
drug sensitivity score (BT-474 [20]; 4-OH-tamoxifen in medium 0 µM): 0
drug sensitivity score (BT-474 [20]; 4-OH-tamoxifen in medium 1 µM): 0
drug sensitivity score (T-47D Tam1 [21]): 0
drug sensitivity score (BT-474 Tam2 [22]): 0

CC1=C2C[C@H]3[C@@H](CC=C4C[C@@H](O)CC[C@@]43C)[C@@H]2CC[C@]12O[C@@H]1C[C@H](C)CN[C@H]1[C@H]2C [Cyclopamine]
relative IC50 (BT-474 Tam1 [1]): > 10 µM
relative IC50 (ZR-75-1 [2]; 4-OH-tamoxifen in medium 0 µM): > 10 µM
relative IC50 (ZR-75-1 [2]; 4-OH-tamoxifen in medium 1 µM): > 10 µM
relative IC50 (ZR-75-1 Tam1 [3]): > 10 µM
relative IC50 (MCF-7 [4]; 4-OH-tamoxifen in medium 0 µM): > 10 µM
relative IC50 (MCF-7 [4]; 4-OH-tamoxifen in medium 1 µM): > 10 µM
relative IC50 (ZR-75-1 Tam2 [5]): > 10 µM
relative IC50 (T-47D Tam2 [6]): > 10 µM
relative IC50 (T-47D [7]; 4-OH-tamoxifen in medium 0 µM): > 10 µM
relative IC50 (T-47D [7]; 4-OH-tamoxifen in medium 1 µM): > 10 µM
relative IC50 (MCF-7 Tam1 [8]): > 10 µM
relative IC50 (BT-474 [9]; 4-OH-tamoxifen in medium 0 µM): > 10 µM
relative IC50 (BT-474 [9]; 4-OH-tamoxifen in medium 1 µM): > 10 µM
relative IC50 (T-47D Tam1 [10]): > 10 µM
relative IC50 (BT-474 Tam2 [11]): > 10 µM
drug sensitivity score (BT-474 Tam1 [12]): 0
drug sensitivity score (ZR-75-1 [13]; 4-OH-tamoxifen in medium 0 µM): 0
drug sensitivity score (ZR-75-1 [13]; 4-OH-tamoxifen in medium 1 µM): 0
drug sensitivity score (ZR-75-1 Tam1 [14]): 0
drug sensitivity score (MCF-7 [15]; 4-OH-tamoxifen in medium 0 µM): 0
drug sensitivity score (MCF-7 [15]; 4-OH-tamoxifen in medium 1 µM): 0
drug sensitivity score (ZR-75-1 Tam2 [16]): 0
drug sensitivity score (T-47D Tam2 [17]): 0
drug sensitivity score (T-47D [18]; 4-OH-tamoxifen in medium 0 µM): 0
drug sensitivity score (T-47D [18]; 4-OH-tamoxifen in medium 1 µM): 0
drug sensitivity score (MCF-7 Tam1 [19]): 0
drug sensitivity score (BT-474 [20]; 4-OH-tamoxifen in medium 0 µM): 0
drug sensitivity score (BT-474 [20]; 4-OH-tamoxifen in medium 1 µM): 0
drug sensitivity score (T-47D Tam1 [21]): 0
drug sensitivity score (BT-474 Tam2 [22]): 0

O=P(O)(O)C(O)(Cn1ccnc1)P(=O)(O)O [Zoledronic acid]
relative IC50 (BT-474 Tam1 [1]): > 10 µM
relative IC50 (ZR-75-1 [2]; 4-OH-tamoxifen in medium 0 µM): > 10 µM
relative IC50 (ZR-75-1 [2]; 4-OH-tamoxifen in medium 1 µM): > 10 µM
relative IC50 (ZR-75-1 Tam1 [3]): > 10 µM
relative IC50 (MCF-7 [4]; 4-OH-tamoxifen in medium 0 µM): > 10 µM
relative IC50 (MCF-7 [4]; 4-OH-tamoxifen in medium 1 µM): > 10 µM
relative IC50 (ZR-75-1 Tam2 [5]): > 10 µM
relative IC50 (T-47D Tam2 [6]): > 10 µM
relative IC50 (T-47D [7]; 4-OH-tamoxifen in medium 0 µM): > 10 µM
relative IC50 (T-47D [7]; 4-OH-tamoxifen in medium 1 µM): > 10 µM
relative IC50 (MCF-7 Tam1 [8]): > 10 µM
relative IC50 (BT-474 [9]; 4-OH-tamoxifen in medium 0 µM): > 10 µM
relative IC50 (BT-474 [9]; 4-OH-tamoxifen in medium 1 µM): > 10 µM
relative IC50 (T-47D Tam1 [10]): > 10 µM
relative IC50 (BT-474 Tam2 [11]): > 10 µM
drug sensitivity score (BT-474 Tam1 [12]): 0
drug sensitivity score (ZR-75-1 [13]; 4-OH-tamoxifen in medium 0 µM): 0
drug sensitivity score (ZR-75-1 [13]; 4-OH-tamoxifen in medium 1 µM): 0
drug sensitivity score (ZR-75-1 Tam1 [14]): 0
drug sensitivity score (MCF-7 [15]; 4-OH-tamoxifen in medium 0 µM): 0
drug sensitivity score (MCF-7 [15]; 4-OH-tamoxifen in medium 1 µM): 0
drug sensitivity score (ZR-75-1 Tam2 [16]): 0
drug sensitivity score (T-47D Tam2 [17]): 0
drug sensitivity score (T-47D [18]; 4-OH-tamoxifen in medium 0 µM): 0
drug sensitivity score (T-47D [18]; 4-OH-tamoxifen in medium 1 µM): 0
drug sensitivity score (MCF-7 Tam1 [19]): 0
drug sensitivity score (BT-474 [20]; 4-OH-tamoxifen in medium 0 µM): 0
drug sensitivity score (BT-474 [20]; 4-OH-tamoxifen in medium 1 µM): 0
drug sensitivity score (T-47D Tam1 [21]): 0
drug sensitivity score (BT-474 Tam2 [22]): 0

NCC(=O)CCC(=O)O [Aminolevulinic acid]
relative IC50 (BT-474 Tam1 [1]): > 10 µM
relative IC50 (ZR-75-1 [2]; 4-OH-tamoxifen in medium 0 µM): > 10 µM
relative IC50 (ZR-75-1 [2]; 4-OH-tamoxifen in medium 1 µM): > 10 µM
relative IC50 (ZR-75-1 Tam1 [3]): > 10 µM
relative IC50 (MCF-7 [4]; 4-OH-tamoxifen in medium 0 µM): > 10 µM
relative IC50 (ZR-75-1 Tam2 [5]): > 10 µM
relative IC50 (T-47D Tam2 [6]): > 10 µM
relative IC50 (T-47D [7]; 4-OH-tamoxifen in medium 0 µM): > 10 µM
relative IC50 (T-47D [7]; 4-OH-tamoxifen in medium 1 µM): > 10 µM
relative IC50 (MCF-7 Tam1 [8]): > 10 µM
relative IC50 (BT-474 [9]; 4-OH-tamoxifen in medium 0 µM): > 10 µM
relative IC50 (BT-474 [9]; 4-OH-tamoxifen in medium 1 µM): > 10 µM
relative IC50 (T-47D Tam1 [10]): > 10 µM
relative IC50 (BT-474 Tam2 [11]): > 10 µM
drug sensitivity score (BT-474 Tam1 [12]): 0
drug sensitivity score (ZR-75-1 [13]; 4-OH-tamoxifen in medium 0 µM): 0
drug sensitivity score (ZR-75-1 [13]; 4-OH-tamoxifen in medium 1 µM): 0
drug sensitivity score (ZR-75-1 Tam1 [14]): 0
drug sensitivity score (MCF-7 [15]; 4-OH-tamoxifen in medium 0 µM): 0
drug sensitivity score (MCF-7 [15]; 4-OH-tamoxifen in medium 1 µM): 0.809
drug sensitivity score (ZR-75-1 Tam2 [16]): 0
drug sensitivity score (T-47D Tam2 [17]): 0
drug sensitivity score (T-47D [18]; 4-OH-tamoxifen in medium 0 µM): 0
drug sensitivity score (T-47D [18]; 4-OH-tamoxifen in medium 1 µM): 0
drug sensitivity score (MCF-7 Tam1 [19]): 0
drug sensitivity score (BT-474 [20]; 4-OH-tamoxifen in medium 0 µM): 0
drug sensitivity score (BT-474 [20]; 4-OH-tamoxifen in medium 1 µM): 0
drug sensitivity score (T-47D Tam1 [21]): 0
drug sensitivity score (BT-474 Tam2 [22]): 0
